Source: US20240083933A1, “DISACCHARIDES FOR TREATING BONE DISEASES” (UNIVERSITE DE PICARDIE JULES VERNE, priority 2020, published 2024)

Key:
[1] = tested on: bone defects in the skull of rats; test: Cranial bone defect model with implanted support; assay type: in vivo; design: key to BMD / BV/TV: =: no difference; N/A: not applicable; *p ≤ 0.05; **p ≤ 0.01; ***p ≤ 0.001
Experimental: The Sprague-Dawley rats are provided by Janvier Labs (Le Genest-Saint-Isle, France) and housed in the PLATAN animal facility of the UPJV. The rats were maintained under a 12-hour day-night cycle, at a temperature of 22±2° C. and 50% humidity.
In order to assess the osteoinductive capacity of the disaccharide via the acceleration of the phenomenon of bone reconstruction and to determine the concentration of the optimal DP2 molecule, and the nature of the most adapted support under the physiological conditions of the fracture consolidation operation (inflammatory reaction, cellular activity), 2 bone defects were made in the skull of rats.
Three different types of supports were tested and two different concentrations of DP2.
In order to reduce the number of used rats, two bone defects were made per rat; one defect was left blank and was used as an internal control for each rat. Thus, the support-only group is considered the control of the experiment. […] For the support-only condition, the latter is mixed with sterile saline solution.
After being assigned to one of the 12 groups shown above, the rat was anesthetized using IsoVet (isoflurane) in the mask (5% in the induction and 2 to 3% in maintenance dose). After 5 min, a nociception test was performed by pinching the paw or tail of the animal to check the effectiveness of the anesthesia. On the workstation, a shaving and a disinfection with vetedine were then carried out next to the incision.
A local anesthesia was also carried out with 7 mg/kg of 2% lidocaine (20 mg/mL) diluted to 5 mg/ml.
On the workstation, the incision of the skin with a 15 blade cold scalpel along the midline was performed, followed by the detachment of the subcutaneous tissues. Then, the incision along the midline and the lifting and lateral displacement of the periosteum were made. […] Saline solution was used during the milling steps. The implantation of the support, depending on the group, on the left side was made; the right side, without support, was used as a control to assess the effect of the lesion and the natural repair processes without the presence of support. The periosteum was put back in place and sutured with 7/0 skin suture. The skin was also put back in place and closed with 4/0 skin suture.
The rat was injected with buprenorphine at a dose of 0.05 mg/kg subcutaneously as an analgesic. After awakening, the rat was returned to its conventional housing conditions, by putting 1 rat per cage. The animals were supervised daily and animal welfare monitoring was carried out.

HOb cells = test: Alkaline phosphatase (ALP) enzymatic activity assay, HOb; assay type: cell-based, human; conditions: 7 days post-treatment, 30 μM
From the text: ALP is an enzyme synthesized by osteoblasts. It hydrolyses phosphoric esters which inhibit the mineralization by releasing a hydroxyl group and a phosphate. The osteoblasts produce matrix vesicles, reservoirs of alkaline phosphatases and ions, which, when released into the extracellular medium, would initiate the mineralization of the osteoid tissue by promoting the local concentrations of calcium ions and phosphates. Cells have been seeded in 6-well plates at 63700 cells/well for MC3T3-E1 and at 182000 cells/well for HOb.
After the PBS rinses, 50 μl of ALP Assay Buffer were added to the wells, the bottom of the wells was scraped and then the 50 μl were taken. A centrifugation for 3 minutes at 13000 G was carried out to remove the insoluble material. In a 96-well plate, 10 μl of each sample to be tested are placed with 70 μl of the ALP Assay buffer and 50 μl of the 5 mM pNPP solution. In parallel, the calibration range was prepared by placing, in the same 96-well plate. The reaction was incubated for 60 min at 25° C., shielded from light. The reaction was stopped by adding 20 μl of the Stop Solution. The optical density was measured at 405 nm.
After the ALP enzymatic activity assay, a protein assay was performed in order to normalize the results of the ALP assay depending on the number of proteins. […] The optical density was measured at 565 nm to determine the amount of proteins.

[2] = Bio-oss support + DP2R2 3 mM vs Bio-oss only, D 14
[3] = Bio-oss support + DP2R2 3 mM vs Bio-oss only, D 29
[4] = Bio-oss support + DP2R2 3 mM vs Bio-oss only, D 63
[5] = Bio-oss support + DP2R2 3 mM vs Bio-oss only, D 91
[6] = Bio-oss support + DP2R2 9 mM vs Bio-oss only, D 14
[7] = Bio-oss support + DP2R2 9 mM vs Bio-oss only, D 29
[8] = Bio-oss support + DP2R2 9 mM vs Bio-oss only, D 63
[9] = Bio-oss support + DP2R2 9 mM vs Bio-oss only, D 91
[10] = Collagen support + DP2R2 3 mM vs Collagen only, D 14
[11] = Collagen support + DP2R2 3 mM vs Collagen only, D 29
[12] = Collagen support + DP2R2 3 mM vs Collagen only, D 63
[13] = Collagen support + DP2R2 3 mM vs Collagen only, D 91
[14] = Collagen support + DP2R2 9 mM vs Collagen only, D 14
[15] = Collagen support + DP2R2 9 mM vs Collagen only, D 29
[16] = Collagen support + DP2R2 9 mM vs Collagen only, D 63
[17] = Collagen support + DP2R2 9 mM vs Collagen only, D 91
[18] = MBCP support + DP2R2 3 mM vs MBCP only, D 14
[19] = MBCP support + DP2R2 3 mM vs MBCP only, D 29
[20] = MBCP support + DP2R2 3 mM vs MBCP only, D 63
[21] = MBCP support + DP2R2 3 mM vs MBCP only, D 91
[22] = MBCP support + DP2R2 9 mM vs MBCP only, D 14
[23] = MBCP support + DP2R2 9 mM vs MBCP only, D 29
[24] = MBCP support + DP2R2 9 mM vs MBCP only, D 63
[25] = MBCP support + DP2R2 9 mM vs MBCP only, D 91

CCCO[C@H]1OC(CO)[C@@H](O[C@@H]2OC(CO)[C@@H](O)C(O)C2NC(C)=O)C(O)C1OC(C)=O (stereo partly drawn) [DP2, n-propyl, 2-O-acetyl-α-D-Glucopyranoside, 4-O-(2-acetamido-2-deoxy-β-D-glucopyranosyl)]
increase the bone mineralization: bone mineralization relative MBCP alone ([1]; the 2 MBCP+DP2 groups (3 mM, 9 mM), from D29 post-surgery)
increases the bone mineralization: bone mineralization ([1]; collagen+DP2 [3 mM], D14)
↑*: BMD [1, 10] | BMD [1, 19] | BMD [1, 20] | BMD [1, 23] | BMD [1, 25]
210.494±14.979%: ALP enzymatic activity relative to the mineralized medium alone (100%) (HOb cells; listed as DP2R0)
=: BMD [1, 2] | BV/TV [1, 2] | BMD [1, 3] | BV/TV [1, 3] | BMD [1, 4] | BV/TV [1, 4] | BMD [1, 5] | BV/TV [1, 5] | BMD [1, 6] | BV/TV [1, 6] | BMD [1, 7] | BV/TV [1, 7] | BMD [1, 8] | BV/TV [1, 8] | BMD [1, 9] | BV/TV [1, 9] | BV/TV [1, 10] | BMD [1, 11] | BV/TV [1, 11] | BMD [1, 12] | BV/TV [1, 12] | BMD [1, 13] | BV/TV [1, 13] | BMD [1, 14] | BV/TV [1, 14] | BMD [1, 15] | BV/TV [1, 15] | BMD [1, 16] | BV/TV [1, 16] | BMD [1, 17] | BV/TV [1, 17] | BMD [1, 18] | BV/TV [1, 18] | BV/TV [1, 19] | BV/TV [1, 20] | BV/TV [1, 21] | BMD [1, 22] | BV/TV [1, 22] | BV/TV [1, 23] | BV/TV [1, 24] | BV/TV [1, 25]
149.749%: ALP enzymatic activity relative to the mineralized medium alone (100%) (HOb cells; listed as DP2R2)
does not have any in-vivo toxic effect: in-vivo toxic effect (survival, infection, hematoma, necrosis at defect sites) ([1]; rats, 3 months after implantation)
↑***: BMD [1, 21] | BMD [1, 24]
